In PMC2914800 (Biochemistry, 2010):

Assays:
[1] = target: HasAp (Pseudomonas aeruginosa, UniProt G3XD33); test: stopped-flow UV-vis kinetics at […] °C; type: binding
[2] = target: T1, HasAp (Pseudomonas aeruginosa, UniProt G3XD33, H32A); test: stopped-flow UV-vis kinetics at […] °C; type: binding
T1 sequence (G3XD33 1-184 H32A): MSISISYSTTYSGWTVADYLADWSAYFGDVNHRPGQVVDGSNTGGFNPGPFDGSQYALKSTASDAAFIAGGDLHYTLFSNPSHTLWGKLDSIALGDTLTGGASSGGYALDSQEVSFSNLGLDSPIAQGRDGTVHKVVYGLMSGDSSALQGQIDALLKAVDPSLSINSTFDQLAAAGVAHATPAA

C=CC1=C(C)C2=Cc3c(C=C)c(C)c4[n]3[Fe]([Cl])[n]3c(c(C)c(CCC(=O)O)c3=CC3=NC(=C4)C(C)=C3CCC(=O)O)=CC1=N2 [hemin]
Kd [1]: 35 µM
Kd [2]: 61 µM
